Assay results taken from US9227991B2, “Anti-tumor bivalent platinum complex and preparation method for complex and ligand of complex” (SOUTHEAST UNIVERSITY, priority 2012, dated 2016).

What was measured:
[1] = test system: human lung cancer cell A549; experiment: MTT cytotoxicity test, A549; type: cell-based; conditions: 48 hours
Protocol: (§1) This test example adopts MTT method to conduct cytotoxicity test on the complexes of the present invention and the common clinical anti-cancer platinum drugs.
(§2) Select cells in logarithmic phase, count them and inoculate them in a 96-well culture plate, at about 8000-10000 cells/well. Cultivate the cells overnight, administrate drug after the cells are attached to the wall, and set a drug group, a positive control group and a negative control group. The complex to be tested is prepared into a stock solution by using 5% glucose aqueous solution. Before use, it is diluted with cell culture medium into solutions at a series of concentrations. Each concentration has 3 duplicate wells. Cultivate for 48 hours after administration of drug, add 20 μL of 5 mg/mL MTT, incubate at 37° C. for 4 hours, remove the supernate and add 150 μL of DMSO-dissolved formazan. Determine OD value of every well at 490 nm wavelength by microplate reader, calculate inhibition rate, draw a concentration-inhibition rate curve and calculate value IC50.

[2] = test system: human umbilical vein endothelial cell HUVEC; experiment: MTT cytotoxicity test, HUVEC; type: cell-based; conditions: 48 hours
Protocol: as §1, §2

[3] = test system: human breast cancer cell MCF-7; experiment: MTT cytotoxicity test, MCF-7; type: cell-based; conditions: MCF-7, MTT, 48 hours
Protocol: as §1, §2

[4] = test system: human breast cancer drug resistant cell MCF-7; experiment: MTT cytotoxicity test, MCF-7 drug resistant; type: cell-based; conditions: 48 hours
Protocol: as §1, §2

[5] = test system: human breast cancer cell MDA-MB-231; experiment: MTT cytotoxicity test, MDA-MB-231; type: cell-based; conditions: MDA-MB-231, MTT, 48 hours
Protocol: as §1, §2

[6] = test system: human gastric adenocarcinoma cell BGC823; experiment: MTT cytotoxicity test, BGC823; type: cell-based; conditions: 48 hours
Protocol: as §1, §2

[7] = test system: human hepatoma carcinoma cell HepG-2; experiment: MTT cytotoxicity test, HepG2; type: cell-based; conditions: 48 hours
Protocol: as §1, §2

[8] = test system: human erythroleukemia cell K562; experiment: MTT cytotoxicity test, K562; type: cell-based; conditions: 48 hours
Protocol: as §1, §2

[9] = test system: human large cell lung cancer cell NCI-H460; experiment: MTT cytotoxicity test, NCI-H460; type: cell-based; conditions: 48 hours
Protocol: as §1, §2

[10] = test system: human hepatoma carcinoma cell SMMC-7721; experiment: MTT cytotoxicity test, SMMC-7721; type: cell-based; conditions: SMMC-7721, MTT, 48 hours
Protocol: as §1, §2

[11] = test system: human acute promyelocytic leukemia cell NB4; experiment: MTT cytotoxicity test, NB4; type: cell-based; conditions: 48 hours
Protocol: as §1, §2

[12] = test system: mouse-transplanted tumor S180 sarcoma; experiment: Mouse-transplanted tumor animal model, S180; type: in vivo, ICR mice; conditions: S180 mice; for Number of Animal End of the test: 10 at beginning
Protocol: (§3) This test example adopts mouse-transplanted tumor animal model method to test the inhibitory effects of the complexes provided by the present invention on animal-transplanted tumor S180 sarcoma and Heps tumor.
Get ICR mice and inoculate solid tumor according to the research method of transplanted tumor. […] Administrate drug by intravenous injection for the first time 24 hours (d1) after the inoculation, administrate drug once every other day for a total of 4 times, at a dose of 0.4 ml/20 g each time. Kill and weigh the tumor-bearing mice days (d10) after the inoculation, separate and weigh the tumor mass, and conduct statistical treatment of all the obtained data (t-test). The inhibitory effect of the complexes on mouse-transplanted tumors S180 and Heps is shown in Table 2 and Table 3 respectively.

[13] = test system: mouse-transplanted tumor Heps; experiment: Mouse-transplanted tumor animal model, Heps; type: in vivo, ICR mice; conditions: Heps mice; for Number of Animal End of the test: 8 at beginning
Protocol: as §3
Get ICR mice and inoculate solid tumor according to the research method of transplanted tumor. Weigh the mice 24 hours after the inoculation and randomly divide them into 7 groups, 8 mice per drug group. Administrate drug by intravenous injection for the first time 24 hours (d1) after the inoculation, administrate drug once every other day for a total of 4 times, at a dose of 0.4 ml/20 g each time. Kill and weigh the tumor-bearing mice days (d10) after the inoculation, separate and weigh the tumor mass, and conduct statistical treatment of all the obtained data (t-test). The inhibitory effect of the complexes on mouse-transplanted tumors S180 and Heps is shown in Table 2 and Table 3 respectively.

Kunming mice = experiment: Acute toxicity test in mice (iv), Bliss method; conditions: mice, iv via caudal vein, 14 days observation, Bliss method
Protocol: (§4) The toxicity of the two platinum complexes provided by the present invention was preliminarily researched.
(§5) Select 50 Kunming mice of clean grade, 25 males and 25 females, with body weight 18˜22 g, randomly divide them into 5 groups, 10 mice in each group, and fast for 12 hours. […] The acceptance capacity of an animal is 0.4 mL/20 g. Observe continuously for 14 days after administration, and record toxic symptoms and death of mice.

mouse = conditions: cited from earlier work
[14] = Acute toxicity test in mice (iv), Bliss method; conditions: both, Kunming, mouse, in vivo, iv
Protocol: as §4, §5

Solubility in water = type: physicochemical
Protocol: As for the platinum complex prepared by the method of the present invention, the molecular structures of the compounds are determined by H NMR, HR ESI-MS and elemental analysis and their solubility in water was determined.

[15] = 25 mg/kg iv every other day x4, X ± SD

| SMILES | IC50 [1] [µM] | IC50 [2] [µM] | IC50 [3] [µM] | IC50 [4] [µM] | IC50 [5] [µM] | IC50 [6] [µM] | IC50 [7] [µM] | IC50 [8] [µM] | IC50 [9] [µM] | IC50 [10] [µM] | IC50 [11] [µM] | Body weight (g) After administration [13, 15] [g] | Number of Animal End of the test ([13]; 25 mg/kg iv every other day x4) | Number of Animal End of the test ([13]; 50 mg/kg iv every other day x4) | also measured |
| --- | --- | --- | --- | --- | --- | --- | --- | --- | --- | --- | --- | --- | --- | --- | --- |
| O=C1[O][Pt]2([NH][C@@H]3CCCC[C@H]3[NH]2)[O]C1=O [Oxaliplatin, oxaliplatin] | 70.3 | 16.3 | 25.7 | 351 | 29.1 | 7.92 | 27.2 | 23.6 | 23.1 | 32.3 | – | – | – | – | – |
| N[C@@H]1CCCC[C@H]1N.O=C1CC2(C1)C(=O)[O][Pt][O]C2=O [GSH-6, cis-[3-ketone-1,1-cyclobutane-dicarboxylic acid radical.trans-1,2-cyclohexanediamineplatinum(II)]] | 47.5 | 68.9 | 34.2 | 1350 | 36.3 | 8.9 | 31.6 | 36 | 11.9 | 216 | 3.1 | 18.10 ± 1.10 | 8 | 0 | Body weight (g) After administration ([12]; 10 mg/kg iv every other day x4, X ± SD): 20.60 ± 2.50 g; Tumor inhibition rate (%) ([12]; 10 mg/kg iv every other day x4, d10): 33.13%; Tumor weight ([12]; 10 mg/kg iv every other day x4, d10, X ± SD): 0.65 ± 0.14 g; Number of Animal End of the test ([12]; 10 mg/kg iv every other day x4): 10; Body weight (g) After administration ([12]; 20 mg/kg iv every other day x4, X ± SD): 18.60 ± 2.24 g; Tumor inhibition rate (%) ([12]; 20 mg/kg iv every other day x4, d10): 46.61%; Tumor weight ([12]; 20 mg/kg iv every other day x4, d10, X ± SD): 0.52 ± 0.13 g; Number of Animal End of the test ([12]; 20 mg/kg iv every other day x4): 10; Tumor inhibition rate (%) ([13]; 25 mg/kg iv every other day x4, d10): 35.44%; Tumor weight ([13]; 25 mg/kg iv every other day x4, d10, X ± SD): 0.84 ± 0.17 g; LD50 (acute toxicity test) (Kunming mice): 100 mg/kg |
| N.N.[Cl][Pt][Cl] [Cis-platinum, cis-platinum] | 16.6 | 11.2 | 32.9 | 32.9 | 18.3 | 5.44 | 2.11 | 10.9 | – | – | – | – | – | – | – |
| N.N.O=C([O-])C1(C(=O)[O-])CCC1.[Pt+2] [Carboplatin, carboplatin] | 137 | 102 | 109 | 457 | 93.3 | 43.2 | 99.1 | 118 | 30.6 | 52.7 | 12.6 | – | – | – | mouse LD50 values in literature (mouse): 139.00 mg/kg |
| [NH2][Pt]1([NH2])[O]C(=O)C2(CC(=O)C2)C(=O)[O]1 [GSH-5, cis-[3-ketone cyclobutane-1,1-dicarboxylic acid radical.diamineplatinum (II)]] | – | – | – | – | – | – | – | – | – | – | – | 22.13 ± 3.52 | 8 | 2 | Body weight (g) After administration ([12]; 15 mg/kg iv every other day x4, X ± SD): 22.50 ± 1.91 g; Number of Animal End of the test ([12]; 15 mg/kg iv every other day x4): 10; Body weight (g) After administration ([12]; 30 mg/kg iv every other day x4, X ± SD): 18.13 ± 1.76 g; Number of Animal End of the test ([12]; 30 mg/kg iv every other day x4): 8; Body weight (g) After administration ([13]; 50 mg/kg iv every other day x4, X ± SD): 13.50 ± 0.50 g; LD50 at 14 days [14]: 150 mg/kg; solubility (Solubility in water): 16 mg/mL |
